This is an account of results in BindingDB's records for doi:10.1021/jm980537b (Agouron Pharmaceuticals, 1999).

Experiment [1] in a line: Increased percentage of formazan production in drug treated virus infected cells to equal 50% of control drug free uninfected cells on serotype 14.
A short description of experiment [2]: The EC50 was calculated as the concentration of drug that increased the percentage of formazan production in drug treated, virus infected cells to 50% of that produced by drug free uninfected cells on serotype 1A.
A short description of experiment [3]: The EC50 was calculated as the concentration of drug that increased the percentage of formazan production in drug treated,virus infected cells to 50% of that produced by drug free uninfected cells on serotype 10.
The nature of experiment [4]: The EC50 was calculated as the concentration of drug that increased the percentage of formazan production in drug treated, virus infected cells to 50% of that produced by drug free uninfected cells on serotype 2.
Experiment [5] can be described thus: The EC50 was calculated as the concentration of drug that increased the percentage of formazan production in drug treated, virus infected cells to 50% of that produced by drug free uninfected cells on serotype 1A. This is another data set of the same source.

Consider `CCOC(=O)/C=C/[C@H](CCC(N)=O)NC(=O)[C@@H](CC(=O)[C@H](CC(C)C)NC(=O)OCc1ccccc1)Cc1ccccc1` [(E)-(S)-4-((2R,5S)-2-Benzyl-5-benzyloxycarbonylamino-7-methyl-4-oxo-octanoylamino)-6-carbamoyl-hex-2-enoic acid ethyl ester], for which a half-maximal response in experiment [1] (EC50) required 360 nM.
With `CCOC(=O)/C=C/[C@H](CCC(N)=O)NC(=O)[C@@H](CC(=O)[C@@H](NC(=O)SCc1ccccc1)C(C)C)Cc1ccccc1` [(E)-(S)-4-((2R,5S)-2-Benzyl-5-benzylsulfanylcarbonylamino-6-methyl-4-oxo-heptanoylamino)-6-carbamoyl-hex-2-enoic acid ethyl ester], the 50% effective concentration (EC50) (as a rule, the concentration giving half of the maximal effect) in experiment [1] was 190 nM.
As to `CCOC(=O)/C=C/[C@H](CCC(N)=O)NC(=O)[C@@H](CC(=O)[C@H](CC(C)C)NC(=O)SCc1ccccc1)Cc1ccccc1` [(E)-(S)-4-((2R,5S)-2-Benzyl-5-benzylsulfanylcarbonylamino-7-methyl-4-oxo-octanoylamino)-6-carbamoyl-hex-2-enoic acid ethyl ester], in experiment [1], it took 680 nM to reach a half-maximal effect (EC50).
In the case of `CCOC(=O)/C=C/[C@H](CCC(N)=O)NC(=O)[C@@H](CC(=O)[C@@H](NC(=O)SC1CCCC1)C(C)(C)C)Cc1ccccc1` [(E)-(S)-4-((2R,5S)-2-Benzyl-5-cyclopentylsulfanylcarbonylamino-6,6-dimethyl-4-oxo-heptanoylamino)-6-carbamoyl-hex-2-enoic acid ethyl ester], the EC50 in experiment [1] is 50 nM; in experiment [2], 430 nM.
In the case of `CCOC(=O)/C=C/[C@H](CCC(N)=O)NC(=O)[C@@H](CC(=O)[C@@H](NC(=O)SC1CCCC1)C(C)C)Cc1ccccc1` [(E)-(S)-4-((2R,5S)-2-Benzyl-5-cyclopentylsulfanylcarbonylamino-6-methyl-4-oxo-heptanoylamino)-6-carbamoyl-hex-2-enoic acid ethyl ester], the EC50 in experiment [1] was 20 nM; in experiment [3], 35 nM; in experiment [4] it was 100 nM.
In experiment [1], `CCOC(=O)/C=C/[C@H](CCC(N)=O)NC(=O)[C@@H](CC(=O)[C@H](CC(C)C)NC(=O)SC1CCCC1)Cc1ccccc1` [(E)-(S)-4-((2R,5S)-2-Benzyl-5-cyclopentylsulfanylcarbonylamino-7-methyl-4-oxo-octanoylamino)-6-carbamoyl-hex-2-enoic acid ethyl ester] showed an EC50 of 190 nM.
For `CCOC(=O)/C=C/[C@H](CCC(N)=O)NC(=O)[C@@H](CC(=O)[C@@H](NC(=O)SC1CCCC1)C(C)C)Cc1ccc(F)cc1` [(E)-(S)-6-Carbamoyl-4-[(2R,5S)-5-cyclopentylsulfanylcarbonylamino-2-(4-fluoro-benzyl)-6-methyl-4-oxo-heptanoylamino]-hex-2-enoic acid ethyl ester], the EC50 in experiment [1] was 20 nM; in experiment [2], 170 nM.
Turning to `CCOC(=O)/C=C/[C@H](CCC(N)=O)NC(=O)[C@@H](CC(=O)[C@H](CC(C)C)NC(=O)SC1CCCC1)Cc1ccc(F)cc1` [(E)-(S)-6-Carbamoyl-4-[(2R,5S)-5-cyclopentylsulfanylcarbonylamino-2-(4-fluoro-benzyl)-7-methyl-4-oxo-octanoylamino]-hex-2-enoic acid ethyl ester], the EC50 in experiment [1] is 280 nM; in experiment [3] it was 1600 nM; in experiment [4] it was 710 nM; in experiment [2] it was 600 nM.
As for `CCOC(=O)/C=C/[C@H](CCC(N)=O)NC(=O)[C@@H](CC(=O)[C@@H](NC(=O)SC1CCCC1)C(C)C)Cc1ccc(C)cc1` [(E)-(S)-6-Carbamoyl-4-[(2R,5S)-5-cyclopentylsulfanylcarbonylamino-6-methyl-2-(4-methyl-benzyl)-4-oxo-heptanoylamino]-hex-2-enoic acid ethyl ester], the EC50 in experiment [1] is 6 nM; in experiment [3] it was 60 nM; in experiment [4] it was 130 nM; in experiment [2] it was 160 nM.
With `CCOC(=O)/C=C/[C@H](CCC(N)=O)NC(=O)[C@@H](CC(=O)[C@@H](NC(=O)SC1CCCC1)C(C)C)Cc1ccc(C(F)(F)F)cc1` [(E)-(S)-6-Carbamoyl-4-[(2R,5S)-5-cyclopentylsulfanylcarbonylamino-6-methyl-4-oxo-2-(4-trifluoromethyl-benzyl)-heptanoylamino]-hex-2-enoic acid ethyl ester], the EC50 in experiment [1] is 50 nM; in experiment [3], 160 nM.
Regarding `CCOC(=O)/C=C/[C@H](CCC(N)=O)NC(=O)[C@@H](CC(=O)[C@H](CC(C)C)NC(=O)SC1CCCC1)Cc1ccc(C)cc1` [(E)-(S)-6-Carbamoyl-4-[(2R,5S)-5-cyclopentylsulfanylcarbonylamino-7-methyl-2-(4-methyl-benzyl)-4-oxo-octanoylamino]-hex-2-enoic acid ethyl ester], the results for the EC50 in experiment [3], in experiment [4] and in experiment [5] were 1400 nM, 1000 nM and 560 nM, respectively.
